From patent US10000499B2, “Methyl diazepane orexin receptor antagonists” (MERCK SHARP & DOHME CORP., priority 2014, dated 2018)

Assays:
human orexin-2 receptor = molecular target: T1, human orexin-2 receptor (Homo sapiens, UniProt O43614); assay: FLIPR Ca2+ flux assay, OX2R; type: cell-based; conditions: for IC50: CHO cells expressing human orexin-2 receptor, agonist 70 pM Ala-6,12 orexin-A, read-out: OX2R FLIPR; for Fold Selective: OX2R over OX1R, from FLIPR values
T1 construct: expressed in transfected cells; host or cells: CHO cells (grown under G418 selection)
T1 sequence (O43614 1-444): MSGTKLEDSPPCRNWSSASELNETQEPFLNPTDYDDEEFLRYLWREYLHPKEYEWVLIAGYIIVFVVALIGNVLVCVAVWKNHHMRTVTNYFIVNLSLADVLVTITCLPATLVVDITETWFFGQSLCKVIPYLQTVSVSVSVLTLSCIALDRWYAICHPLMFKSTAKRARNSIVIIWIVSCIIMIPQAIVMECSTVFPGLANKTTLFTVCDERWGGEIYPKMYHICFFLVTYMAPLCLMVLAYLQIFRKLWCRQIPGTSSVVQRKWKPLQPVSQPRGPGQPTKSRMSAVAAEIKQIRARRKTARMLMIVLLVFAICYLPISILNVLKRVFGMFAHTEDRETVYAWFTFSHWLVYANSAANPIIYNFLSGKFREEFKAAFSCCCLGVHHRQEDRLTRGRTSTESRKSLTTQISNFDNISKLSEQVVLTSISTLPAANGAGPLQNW
Procedure: (§1) For intracellular calcium measurements, Chinese hamster ovary (CHO) cells expressing the rat orexin-1 receptor or the human orexin-2 receptor, are grown in Iscove's modified DMEM containing 2 mM L-glutamine, […], 1% hypoxanthine-thymidine supplement, 100 U/ml penicillin, 100 μg/ml streptomycin and 10% heat-inactivated fetal calf serum (FCS). The cells are seeded at 20,000 cells/well into Becton-Dickinson black 384-well clear bottom sterile plates coated with poly-D-lysine. All reagents were from GIBCO-Invitrogen Corp. The seeded plates are incubated overnight at 37° C. and 5% CO2. Ala-6,12 human orexin-A as the agonist is prepared as a 1 mM stock solution in 1% bovine serum albumin (BSA) and diluted in assay buffer (HBSS containing 20 mM HEPES, 0.1% BSA and 2.5 mM probenecid, pH7.4) for use in the assay at a final concentration of 70 pM. Test compounds are prepared as 10 mM stock solution in DMSO, then diluted in 384-well plates, first in DMSO, then assay buffer. On the day of the assay, cells are washed 3 times with 100 μl assay buffer and then incubated for 60 min (37° C., 5% CO2) in 60 μl assay buffer containing 1 μM Fluo-4AM ester, 0.02% pluronic acid, and 1% BSA, The dye loading solution is then aspirated and cells are washed 3 times with 100 μl assay buffer, 30 μl of that same buffer is left in each well. Within the Fluorescent Imaging Plate Reader (FLIPR, Molecular Devices), test compounds are added to the plate in a volume of 25 μl, incubated for 5 min and finally 25 μl of agonist is added. Fluorescence is measured for each well at 1 second intervals for 5 minutes and the height of each fluorescence peak is compared to the height of the fluorescence peak induced by 70 pM Ala-6,12 orexin-A with buffer in place of antagonist. […] The intrinsic orexin receptor antagonist activity of a compound which may be used in the present invention may be determined by these assays.

rat orexin-1 receptor = molecular target: T2, rat orexin-1 receptor (Rattus norvegicus, UniProt P56718); assay: FLIPR Ca2+ flux assay, OX1R; type: cell-based; conditions: CHO cells expressing rat orexin-1 receptor; agonist 70 pM Ala-6,12 orexin-A
T2 construct: expressed in transfected cells; host or cells: CHO cells (grown under G418 selection)
T2 sequence (P56718 1-416): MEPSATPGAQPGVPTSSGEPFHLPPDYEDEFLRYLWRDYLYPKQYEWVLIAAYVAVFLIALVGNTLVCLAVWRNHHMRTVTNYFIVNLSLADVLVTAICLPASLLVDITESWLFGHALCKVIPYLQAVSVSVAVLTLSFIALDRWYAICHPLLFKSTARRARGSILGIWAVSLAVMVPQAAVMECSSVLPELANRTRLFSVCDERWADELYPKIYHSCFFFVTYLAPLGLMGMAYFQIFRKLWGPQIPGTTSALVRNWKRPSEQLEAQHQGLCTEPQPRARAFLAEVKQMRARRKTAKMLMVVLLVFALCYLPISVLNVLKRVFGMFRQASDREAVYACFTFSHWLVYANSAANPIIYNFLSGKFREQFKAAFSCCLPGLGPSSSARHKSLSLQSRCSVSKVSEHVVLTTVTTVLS
Procedure: as §1

Row | IC50 (human orexin-2 receptor) [nM] | Fold Selective (human orexin-2 receptor) | IC50 (rat orexin-1 receptor) [nM] | SMILES
1 | 50 | 200 | > 10000 | C[C@@H]1CCN(c2nccn3ccnc23)CCN1C(=O)c1ccccc1-n1nccn1 [Example 22, 8-[(5R)-5-methyl-4-{[2-(2H-1,2,3-triazol-2-yl)phenyl]carbonyl}-1,4-diazepan-1-yl]imidazo[1,2-a]pyrazine]
2 | 29 | 344 | > 10000 | C[C@@H]1CCN(c2nccn3ccnc23)CCN1C(=O)c1ccccc1C1CC1 [Example 23, 8-{(5R)-4-[(2-cyclopropylphenyl)carbonyl]-5-methyl-1,4-diazepan-1-yl}imidazo[1,2-a]pyrazine]
3 | 113 | 88 | > 10000 | C[C@@H]1CCN(c2nccn3nccc23)CCN1C(=O)c1ccccc1-n1nccn1 [Example 24, 4-[(5R)-5-methyl-4-{[2-(2H-1,2,3-triazol-2-yl)phenyl]carbonyl}-1,4-diazepan-1-yl]pyrazolo[1,5-a]pyrazine]
4 | 126 | 79 | > 10000 | C[C@@H]1CCN(c2nccn3ccnc23)CCN1C(=O)c1cccnc1-n1cccn1 [Example 25, 8-[(5R)-5-methyl-4-{[2-(1H-pyrazol-1-yl)pyridin-3-yl]carbonyl}-1,4-diazepan-1-yl]imidazo[1,2-a]pyrazine]
